From PubChem BioAssay AID328 (DTP/NCI, 2004) come the findings set out here.

For the assay, the system named is BDF1 mice, P388 leukemia ip, median survival T/C. Put plainly: NCI In Vivo Anticancer Drug Screen. Data for tumor model P388 Leukemia (intraperitoneal) in B6D2F1 (BDF1) mice. To be noted: endpoint: median survival time, higher = longer survival. The method, boiled down: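 Read-out is survival of treated animals expressed relative to the vehicle group, as a T/C ratio.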

The mark [1] stands for this setting: dose: 100.0 mg/kg/injection, schedule: Q04DX003 (ip), vehicle: Klucel (hydroxypropylcellulose) (HPC).
Setting [2] is: dose: 200.0 mg/kg/injection, schedule: Q04DX003 (ip), vehicle: Klucel (hydroxypropylcellulose) (HPC).
[3] abbreviates: dose: 400.0 mg/kg/injection, schedule: Q04DX003 (ip), vehicle: Klucel (hydroxypropylcellulose) (HPC).
Setting [4] is: dose: 50.0 mg/kg/injection, schedule: Q01DX009 (ip), vehicle: saline with Tween-80.
Setting [5] is: dose: 100.0 mg/kg/injection, schedule: Q01DX009 (ip), vehicle: saline with Tween-80.
The mark [6] stands for this setting: dose: 200.0 mg/kg/injection, schedule: Q01DX009 (ip), vehicle: saline with Tween-80.
[7] abbreviates: dose: 50.0 mg/kg/injection, schedule: Q01DX005 (ip), vehicle: saline with Tween-80.
The mark [8] stands for this setting: dose: 100.0 mg/kg/injection, schedule: Q01DX005 (ip), vehicle: saline with Tween-80.
Where [9] appears, read: dose: 200.0 mg/kg/injection, schedule: Q01DX005 (ip), vehicle: saline with Tween-80.
Where [10] appears, read: dose: 12.5 mg/kg/injection, schedule: Q01DX009 (ip), vehicle: saline.
The mark [11] stands for this setting: dose: 25.0 mg/kg/injection, schedule: Q01DX009 (ip), vehicle: saline.
Setting [12] is: dose: 25.0 mg/kg/injection, schedule: Q04DX003 (ip), vehicle: saline.
[13] abbreviates: dose: 50.0 mg/kg/injection, schedule: Q04DX003 (ip), vehicle: saline.
[14] abbreviates: dose: 100.0 mg/kg/injection, schedule: Q01DX009 (ip), vehicle: Klucel (hydroxypropylcellulose) (HPC).
Setting [15] is: dose: 200.0 mg/kg/injection, schedule: Q01DX009 (ip), vehicle: Klucel (hydroxypropylcellulose) (HPC).
Where [16] appears, read: dose: 25.0 mg/kg/injection, schedule: Q01DX009 (ip), vehicle: saline with Tween-80.
Setting [17] is: dose: 50.0 mg/kg/injection, schedule: Q01DX009 (ip), vehicle: saline.
The mark [18] stands for this setting: dose: 100.0 mg/kg/injection, schedule: Q01DX009 (ip), vehicle: saline.

Molecules are shown by their SMILES. Values joined by “and” are separate entries in the source; they are usually repeats but may differ in a detail not shown here. Equal entries are not always repeated. Toxic doses and inconclusive results are not listed. Non-standard residues stand in square brackets, D forms with d. Residues, ends and D or L forms follow the SMILES beside them. ξ: configuration not given here. *: point of attachment. Cbz = O=C(OCc1ccccc1)*; Boc = CC(C)(C)OC(=O)*; ξK = NCCCCC(N)C(=O)O; OBn = c1ccc(CO*)cc1

On to `CN(Nc1c([N+](=O)[O-])cc([N+](=O)[O-])cc1[N+](=O)[O-])c1cccc2ccccc12`, for which the T/C is, setting by setting: (dose: 25.0 mg/kg/injection, schedule: Q04DX003 (ip), vehicle: Klucel (hydroxypropylcellulose) (HPC)) 109 % of control; (dose: 50.0 mg/kg/injection, schedule: Q04DX003 (ip), vehicle: Klucel (hydroxypropylcellulose) (HPC)) 100 % of control; under setting [1], 100 % of control; under setting [2], 86 % of control; under setting [3], 90 % of control.
`O=[N+]([O-])c1ccc(Sc2ccc(Cl)cc2)c2nonc12`: the T/C under setting [4] is 92 % of control.
On to `Cc1[nH]c(N)nc(=S)c1CCC(=O)O`, for which the T/C was 100 % of control under setting [1], 104 % of control under setting [2] and 95 % of control under setting [3].
Turning to `N#Cc1cccc(CC(O)(c2ccccc2)c2cccc3ccccc23)c1` (stereo not given), the T/C was 103 % of control under setting [4], 97 % of control under setting [5] and 99 % of control under setting [6].
On to `COC(=O)/C=C\SC(=S)C1CCCC1=O` (stereo not given), for which the T/C runs as follows: under setting [4], 119 % of control; under setting [5], 110 % of control; under setting [6], 112 % of control.
The like results for `O=C(O)c1ccccc1NSc1ccccc1[N+](=O)[O-]` were, in that order, 97 % of control, 109 % of control and 111 % of control.
Take `C[CH2][Pb]([CH2]C)([CH2]C)[O]C(=O)CBr`: the T/C by setting is: (dose: 2.0 mg/kg/injection, schedule: Q01DX009 (ip), vehicle: other) 109 % of control; (dose: 4.5 mg/kg/injection, schedule: Q01DX009 (ip), vehicle: other) 101 % of control; (dose: 6.0 mg/kg/injection, schedule: Q01DX009 (ip), vehicle: Klucel (hydroxypropylcellulose) (HPC)) 120 % of control; (dose: 12.0 mg/kg/injection, schedule: Q01DX009 (ip), vehicle: Klucel (hydroxypropylcellulose) (HPC)) 103 % of control.
Turning to `Clc1ccc2c(c1)Cc1cc(N=Cc3ccccc3Cl)ccc1-2`, the T/C reads like this: (dose: 42.5 mg/kg/injection, schedule: Q01DX001 (ip), vehicle: other) 86 % of control; (dose: 85.0 mg/kg/injection, schedule: Q01DX001 (ip), vehicle: other) 95 % of control; (dose: 170.0 mg/kg/injection, schedule: Q01DX001 (ip), vehicle: other) 100 % of control; (dose: 170.0 mg/kg/injection, schedule: Q01DX001 (ip), vehicle: saline with Tween-80) 100 % of control.
As for `CC(=O)N/N=C\C1=CCC=C(Br)S1`, the T/C under setting [4] was 90 % of control and the T/C under setting [5] is 104 % of control.
For the compound `CC(C)(C)OC(=O)NCC(=O)NC(CCCCNC(=O)OCc1ccccc1)C(=O)OCc1ccccc1` (stereo not drawn) (Boc-Gly-[ξK](Cbz)-OBn), the T/C was 95 % of control under setting [7], 90 % of control under setting [8] and 104 % of control under setting [9].
In the case of `Nc1nc2nc(N=Nc3ccc(Br)cc3)[nH]c2c(=O)[nH]1`, the T/C under setting [7] is 98 % of control, the T/C under setting [8] is 97 % of control and the T/C under setting [9] is 100 % of control.
Regarding `O=S(=O)(O)O.[N-]=C(N)/N=C(\[NH-])N.[N-]=C(N)/N=C(\[NH-])N.[N-]=C(N)NC(=[N-])N.[Rh+3]`, the T/C runs as follows: (dose: 6.25 mg/kg/injection, schedule: Q01DX009 (ip), vehicle: saline) 104 % of control; under setting [10], 95 % of control; (dose: 12.5 mg/kg/injection, schedule: Q04DX003 (ip), vehicle: saline) 100 % of control; under setting [11], 119 % of control; under setting [12], 109 % of control; under setting [13], 118 % of control.
In the case of `c1ccc(C23c4ccccc4C(=NC4CCCCC4)C2N3C2CCCCC2)cc1` (stereo not given), the T/C reads like this: under setting [1], 90 % of control; under setting [2], 100 % of control.
`Cc1cc(NC(=O)c2ccc(C(=O)Nc3ccc(C4=NCCN4)c(C)c3)cc2)ccc1C1=NCCN1`: the T/C is 122 % of control under setting [5] and 186 % of control under setting [6].
Consider `COc1ccc(OC)c2nc3c(=O)[nH]c(=O)[nH]c3nc12`, for which the T/C (dose: 55.0 mg/kg/injection, schedule: Q01DX010 (ip), vehicle: water) is 100 % of control; the T/C (dose: 80.0 mg/kg/injection, schedule: Q01DX010 (ip), vehicle: water) was 109 % of control; the T/C (dose: 120.0 mg/kg/injection, schedule: Q01DX010 (ip), vehicle: water) was 109 % of control; the T/C (dose: 180.0 mg/kg/injection, schedule: Q01DX010 (ip), vehicle: water) is 118 % of control.
Regarding `C(=N\Nc1nc2ccccc2s1)/c1ccc(/C=N/Nc2nc3ccccc3s2)cc1`, the T/C reads like this: under setting [14], 109 % of control; under setting [1], 104 % of control; under setting [15], 114 % of control; under setting [2], 100 % of control; (dose: 400.0 mg/kg/injection, schedule: Q01DX009 (ip), vehicle: Klucel (hydroxypropylcellulose) (HPC)) 100 % of control; under setting [3], 104 % of control.
With `CCCCCCCS(=O)CCCCCCC`, the T/C was 102 % of control (dose: 6.25 mg/kg/injection, schedule: Q01DX009 (ip), vehicle: saline with Tween-80); 104 % of control (dose: 12.5 mg/kg/injection, schedule: Q01DX009 (ip), vehicle: saline with Tween-80); 95 % of control under setting [16]; 104 % of control under setting [4].
On to `COC1=C(c2ccccc2)C(=O)CCc2ccccc21`, for which the T/C by setting is: under setting [1], 100 % of control; under setting [2], 100 % of control; under setting [3], 100 % of control.
For the compound `COc1cc2c(cc1OC)C(=O)CN(S(=O)(=O)c1ccc(C)cc1)CC2`, the T/C runs as follows: under setting [11], 95 % of control; under setting [17], 104 % of control; under setting [18], 104 % of control; under setting [1], 100 % of control; under setting [2], 95 % of control; under setting [3], 95 % of control.
As to `O=C(O)CCCCCS`, the T/C (dose: 50.0 mg/kg/injection, schedule: Q01DX009 (ip), vehicle: Klucel (hydroxypropylcellulose) (HPC)) is 100 % of control; the T/C under setting [14] was 102 % of control; the T/C under setting [15] was 99 % of control.
As for `NC(N)=NCCCC(=O)O`, the T/C under setting [17] is 104 % of control; the T/C under setting [18] is 94 % of control and 103 % of control; the T/C (dose: 100.0 mg/kg/injection, schedule: Q04DX003 (ip), vehicle: saline) is 95 % of control; the T/C (dose: 200.0 mg/kg/injection, schedule: Q01DX009 (ip), vehicle: saline) was 101 % of control and 103 % of control; the T/C (dose: 200.0 mg/kg/injection, schedule: Q04DX003 (ip), vehicle: saline) was 100 % of control; the T/C (dose: 400.0 mg/kg/injection, schedule: Q01DX009 (ip), vehicle: saline) was 92 % of control and 106 % of control. Where the note is “dose: 400.0 mg/kg/injection, schedule: Q04DX003 (ip), vehicle: saline”, the T/C was 104 % of control.
Turning to `COc1cc2c(cc1OC)C(CCN1C(=O)c3ccccc3C1=O)=NCC2`, the T/C under setting [10] was 91 % of control, the T/C under setting [11] was 87 % of control, the T/C under setting [12] was 100 % of control and the T/C under setting [13] is 95 % of control.
Turning to `C=C/C(C)=C/[C@H](C)C(=O)C[C@H](O)CC1CC(=O)NC(=O)C1`, the T/C is 111 % of control (dose: 7.3 mg/kg/injection, schedule: Q01DX009 (ip), vehicle: saline with Tween-80); 121 % of control (dose: 11.0 mg/kg/injection, schedule: Q01DX009 (ip), vehicle: saline with Tween-80); 171 % of control (dose: 16.5 mg/kg/injection, schedule: Q01DX009 (ip), vehicle: saline with Tween-80); 123 % of control and 124 % of control under setting [16]; 152 % of control (dose: 37.5 mg/kg/injection, schedule: Q01DX009 (ip), vehicle: saline with Tween-80); 180 % of control (dose: 75.0 mg/kg/injection, schedule: Q01DX009 (ip), vehicle: saline with Tween-80).
Take `N#CSCc1nc2ccc(Cl)cc2c(-c2ccccc2)[n+]1[O-]`: the T/C is, setting by setting: under setting [4], 100 % of control; under setting [5], 114 % of control; under setting [6], 114 % of control.
